IC50, inhibition and Inhibition data for 19 compounds are collected here from ChEMBL document CHEMBL1130932, “Hepatoprotective and nitric oxide production inhibitory activities of coumarin and polyacetylene constituents from the roots of Angelica furcijuga” (Bioorg Med Chem Lett, 1998).

Type in all cases: functional
The species entered for assay [1] is Mus musculus. The assay is described as follows: Inhibitory activity against LPS-induced NO production in mouse peritoneal macrophages was evaluated.
The species named for assay [2] is Mus musculus. Briefly: Inhibitory activity from the roots of Angelica furcijuga on LPS-induced NO production in mouse peritoneal macrophages was evaluated at 100 uM.
For assay [3], the species on record is Rattus norvegicus. Briefly: Inhibitory activity against D-GalN-induced cytotoxicity in rat hepatocytes. Particulars: Hepatocyte.
The species named for assay [4] is Rattus norvegicus. Briefly: Inhibitory activity against D-GalN-induced cytotoxicity in rat hepatocytes at 100 uM. Particulars: Hepatocyte.
The species entered for assay [5] is Mus musculus. Briefly: Inhibitory activity against LPS-induced NO production in mouse peritoneal macrophages was evaluated at 100 uM.

The structures appear in SMILES notation.

For `CC(C)(O)[C@H](O)Cc1cc2ccc(=O)oc2cc1O[C@@H]1O[C@H](CO)[C@@H](O)[C@H](O)[C@H]1O`, the IC50 in the assay listed under Mus musculus [1] and in the assay listed under Rattus norvegicus [3] was more than 100 µM throughout. The inhibition at 100 µM worked out at 49% in the assay listed under Mus musculus [2] and 5.8% in the assay filed under Rattus norvegicus [4].

As for `CC(C)(O)C1Cc2cc(CCC(=O)O)c(O[C@@H]3O[C@H](CO)[C@@H](O)[C@H](O)[C@H]3O)cc2O1` (stereo partly drawn), the IC50 in the assay filed under Mus musculus [1] and in the assay filed under Rattus norvegicus [3] was more than 100 µM in each case. Further, the figures for the inhibition at 100 µM in the assay listed under Mus musculus [2] and in the assay filed under Rattus norvegicus [4] were 32% and 0.6%, respectively.

Take `CC1(C)Oc2ccc3ccc(=O)oc3c2C[C@H]1O[C@@H]1O[C@H](CO)[C@@H](O)[C@H](O)[C@H]1O`: the IC50 in the assay filed under Mus musculus [1] and in the assay listed under Rattus norvegicus [3] was more than 100 µM throughout. Also, the values for the inhibition at 100 µM in the assay listed under Mus musculus [2] and in the assay listed under Rattus norvegicus [4] were 21% and 1.4%, respectively.

As for `COc1cc(C(O)C(CO)Oc2ccc(/C=C/CO[C@@H]3O[C@H](CO)[C@@H](O)[C@H](O)[C@H]3O)cc2OC)ccc1O` (stereo partly drawn), in the assay listed under Mus musculus [1], the IC50 is more than 100 µM and the Inhibition is listed as -26%. In addition, the half-inhibitory concentration (IC50) in the assay listed under Rattus norvegicus [3] is more than 100 µM. The inhibition at 100 µM in the assay listed under Rattus norvegicus [4] was -0.2%.

For the compound `C/C=C(\C)C(=O)O[C@@H]1[C@H](OC(=O)C(C)C)c2c(ccc3ccc(=O)oc23)OC1(C)C`, the IC50 in the assay listed under Mus musculus [1] was 8.8 µM; in the assay listed under Rattus norvegicus [3] it was more than 100 µM. Besides, the inhibition at 100 µM in the assay filed under Rattus norvegicus [4] was determined as 10%.

Turning to `C/C=C(\C)C(=O)O[C@@H]1[C@H](OC(=O)C(C)CC)c2c(ccc3ccc(=O)oc23)OC1(C)C` (stereo partly drawn), the IC50 was 5.1 µM in the assay filed under Mus musculus [1] and more than 100 µM in the assay filed under Rattus norvegicus [3]. Also, the inhibition at 100 µM in the assay listed under Rattus norvegicus [4] is -0.5%.

Consider `O=c1ccc2ccc(O[C@@H]3O[C@H](COC4OC[C@](O)(CO)[C@H]4O)[C@@H](O)[C@H](O)[C@H]3O)cc2o1` (stereo partly drawn), for which the IC50 in the assay filed under Mus musculus [1] and in the assay filed under Rattus norvegicus [3] was more than 100 µM in each case. In addition, the values for the inhibition at 100 µM in the assay filed under Mus musculus [2] and in the assay listed under Rattus norvegicus [4] were 36% and -2.1%, respectively.

With `CCC(C)C(=O)O[C@@H]1c2c(ccc3ccc(=O)oc23)OC(C)(C)[C@@H]1OC(C)=O` (stereo partly drawn), the IC50 is 8.2 µM in the assay listed under Mus musculus [1] and more than 100 µM in the assay filed under Rattus norvegicus [3]. Also, in the assay listed under Rattus norvegicus [4], the inhibition at 100 µM was -2.5%.

Consider `CC1(C)Oc2ccc3ccc(=O)oc3c2[C@@H](O)[C@H]1O`, for which the IC50 in the assay filed under Mus musculus [1] is 91 µM; in the assay listed under Rattus norvegicus [3] it was more than 100 µM. In addition, in the assay filed under Rattus norvegicus [4], the inhibition at 100 µM was determined as 6.5%.

For the compound `CC(=O)O[C@@H]1c2c(ccc3ccc(=O)oc23)OC(C)(C)[C@@H]1OC(=O)C1(C)OC1C` (stereo partly drawn), the IC50 worked out at 53 µM in the assay filed under Mus musculus [1] and 29 µM in the assay filed under Rattus norvegicus [3].

On to `C=C[C@@H](O)C#CC#CC/C=C\CCCCCCC`, for which the IC50 was 4.8 µM in the assay listed under Mus musculus [1] and more than 100 µM in the assay listed under Rattus norvegicus [3]. The inhibition at 100 µM in the assay listed under Rattus norvegicus [4] was -0.6%.

For the compound `C/C=C(\C)C(=O)O[C@@H]1c2c(ccc3ccc(=O)oc23)OC(C)(C)[C@@H]1OC(=O)/C(C)=C/C`, the results for the concentration for half-maximal inhibition (IC50) in the assay listed under Mus musculus [1] and in the assay filed under Rattus norvegicus [3] were 3.4 µM and more than 100 µM, respectively. For the same compound, the inhibition at 100 µM in the assay filed under Rattus norvegicus [4] is 2.8%.

As for `CC1(C)Oc2ccc3ccc(=O)oc3c2[C@H](O)[C@H]1O`, the half-inhibitory concentration (IC50) in the assay listed under Mus musculus [1] and in the assay filed under Rattus norvegicus [3] was more than 100 µM each time. Besides, the inhibition at 100 µM was 36% in the assay listed under Mus musculus [5] and 1.5% in the assay filed under Rattus norvegicus [4].

As for `C/C=C(\C)C(=O)O[C@@H]1[C@H](OC(C)=O)c2c(ccc3ccc(=O)oc23)OC1(C)C`, the figures for the IC50 in the assay listed under Mus musculus [1] and in the assay filed under Rattus norvegicus [3] were 8.8 µM and more than 100 µM, respectively. The inhibition at 100 µM in the assay filed under Rattus norvegicus [4] was found to be 13%.

Turning to `COc1c2ccoc2cc2oc(=O)ccc12` [BERGAPTEN], the IC50 in the assay filed under Mus musculus [1] and in the assay filed under Rattus norvegicus [3] was more than 100 µM each time. Besides, the inhibition at 100 µM was 49% in the assay filed under Mus musculus [2] and 23% in the assay listed under Rattus norvegicus [4].

As to `C=C[C@@H](O)C#CC#C[C@@H](O)/C=C\CCCCCCC` [FALCARINDIOL], the IC50 in the assay filed under Mus musculus [1] was 4.4 µM; in the assay filed under Rattus norvegicus [3], more than 100 µM. For the same compound, the inhibition at 100 µM in the assay filed under Rattus norvegicus [4] is -33%.

Consider `C/C=C(\C)C(=O)O[C@@H]1c2c(ccc3ccc(=O)oc23)OC(C)(C)[C@@H]1OC(C)=O` [PTERYXIN], for which the IC50 in the assay listed under Mus musculus [1] is 20 µM; in the assay listed under Rattus norvegicus [3], more than 100 µM. Besides, the inhibition at 100 µM in the assay filed under Rattus norvegicus [4] was found to be 4.4%.

For the compound `CC(=O)O[C@@H]1[C@H](OC(=O)C(C)C)c2c(ccc3ccc(=O)oc23)OC1(C)C` [SERAVSHANIN], the results for the IC50 in the assay listed under Mus musculus [1] and in the assay listed under Rattus norvegicus [3] were 4.2 µM and more than 100 µM, respectively. Also, the inhibition at 100 µM in the assay filed under Rattus norvegicus [4] is -2.2%.

As for `CC(=O)O[C@@H]1[C@H](OC(=O)CC(C)C)c2c(ccc3ccc(=O)oc23)OC1(C)C` [SUKSDORFIN], the IC50 in the assay listed under Mus musculus [1] is 11 µM; in the assay filed under Rattus norvegicus [3], more than 100 µM. In the assay filed under Rattus norvegicus [4], the inhibition at 100 µM was -3.4%.

By IC50 is commonly meant the concentration needed to halve the response being measured. Low readings indicate greater potency in that assay, high ones weaker potency in that assay. What is called inhibition is the relative decrease from the control value, in per cent. What is called Inhibition is the drop in the measured response relative to a control, in per cent.
